Data: ChEMBL document CHEMBL2157899 (Bioorg Med Chem, 2012)
Non-standard residues stand in square brackets, D forms with d. Residues, ends and D or L forms follow the SMILES beside them. ξ: configuration not given here. ξGly(octyl) = CCCCCCCCC(N)C(=O)O

Columns and labels:
[1] = target: T1, Mu-type opioid receptor (Homo sapiens, UniProt P35372); assay: Agonist activity at MOP receptor expressed in CHO-K1 cells assessed as inhibition of forskolin-stimulated cAMP accumulation after 30 mins; assay type: functional, cell-based
[2] = target: T1, Mu-type opioid receptor; assay: Displacement of [3H]DAMGO from MOP receptor expressed in CHO-K1 cells after overnight incubation by beta counting method; assay type: cell-based
[3] = test system: CHO-K1; assay: Selectivity ratio of Ki for DOP receptor expressed in CHO-K1 cells to Ki for MOP receptor expressed in CHO-K1 cells; assay type: cell-based
[4] = Half life in human Caco2 cell homogenate at 200 uM by LC/MS analysis; assay type: ADME, Colon; conditions: Caco-2 cell homogenate
[5] = in vitro; conditions: human, Caco-2
Description: Apparent permeability across human Caco2 cells st 200 uM measured over 150 mins by LC/MS analysis

[6] = target: Delta-type opioid receptor (Homo sapiens, UniProt P41143); assay: Displacement of [3H]DPDPE from DOP receptor expressed in CHO-K1 cells after overnight incubation by beta counting method; assay type: cell-based
Sequence of Delta-type opioid receptor (P41143 whole entry): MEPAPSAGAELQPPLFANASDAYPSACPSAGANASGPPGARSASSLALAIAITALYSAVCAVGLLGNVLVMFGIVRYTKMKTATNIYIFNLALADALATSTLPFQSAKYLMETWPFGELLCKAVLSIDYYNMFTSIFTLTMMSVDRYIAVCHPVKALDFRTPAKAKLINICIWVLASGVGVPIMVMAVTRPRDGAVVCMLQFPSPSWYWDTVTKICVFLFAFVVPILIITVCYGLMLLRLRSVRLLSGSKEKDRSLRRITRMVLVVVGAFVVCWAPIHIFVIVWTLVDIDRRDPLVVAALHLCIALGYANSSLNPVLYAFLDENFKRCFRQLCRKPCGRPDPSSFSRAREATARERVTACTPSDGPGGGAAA

T1 sequence (P35372 whole entry): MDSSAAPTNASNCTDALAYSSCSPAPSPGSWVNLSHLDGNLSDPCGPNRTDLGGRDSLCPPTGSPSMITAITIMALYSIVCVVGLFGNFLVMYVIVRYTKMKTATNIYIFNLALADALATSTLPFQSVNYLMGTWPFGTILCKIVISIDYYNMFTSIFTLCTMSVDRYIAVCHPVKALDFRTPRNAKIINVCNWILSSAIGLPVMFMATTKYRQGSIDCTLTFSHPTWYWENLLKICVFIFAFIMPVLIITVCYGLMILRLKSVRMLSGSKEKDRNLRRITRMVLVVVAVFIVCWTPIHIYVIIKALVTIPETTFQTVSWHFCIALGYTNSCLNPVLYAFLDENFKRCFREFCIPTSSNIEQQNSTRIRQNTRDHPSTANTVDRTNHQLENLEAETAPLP

Question: What does the source list for `CCCCCCCCC(N)C(=O)N[C@@H](Cc1ccc(O)cc1)C(=O)N1CCC[C@H]1C(=O)N[C@@H](Cc1c[nH]c2ccccc12)C(=O)N[C@@H](Cc1ccccc1)C(=O)N[C@@H](Cc1ccccc1)C(=O)NCC(=O)N[C@@H](CC(C)C)C(=O)N[C@@H](CCSC)C(N)=O` (stereo partly drawn) (H-[ξGly(octyl)]YPWFFGLM-NH2)?
Answer: IC50 [1]: 0.045 µM; inhibition [1]: Dose-dependent effect; Ki [2]: 0.00387 µM; Ratio Ki [3]: 318; half-life at 200 µM [4]: 75.8 min; Papp at 2.5 h, 200 µM [5]: 10.2 ×10⁻⁶ cm/s; Ki [6]: 1.23 µM

Question: With `CCCCCCCCC(N)C(=O)N[C@@H](Cc1ccc(O)cc1)C(=O)N1CCC[C@H]1C(=O)N[C@@H](Cc1c[nH]c2ccccc12)C(=O)N[C@@H](Cc1ccccc1)C(=O)NCC(=O)N[C@@H](CC(C)C)C(=O)N[C@@H](CCSC)C(N)=O` (stereo partly drawn) (H-[ξGly(octyl)]YPWFGLM-NH2) as the molecule, how does the Ki [2] read?
Answer: 0.132 µM

Question: And the Ratio Ki [3]?
Answer: 17

Question: What about the half-life at 200 µM [4] of the same molecule?
Answer: 52.5 min

Question: What about the Papp at 2.5 h, 200 µM [5] of the same molecule?
Answer: 8.08 ×10⁻⁶ cm/s

Question: And the Ki [6]?
Answer: 2.25 µM

Question: With `NC(=O)[C@H](Cc1ccccc1)NC(=O)[C@H](Cc1c[nH]c2ccccc12)NC(=O)[C@@H]1CCCN1C(=O)[C@@H](N)Cc1ccc(O)cc1` [ENDOMORPHIN-1] as the molecule, how does the half-life at 200 µM [4] read?
Answer: 5.6 min

Question: And the Papp at 2.5 h, 200 µM [5]?
Answer: 1.01 ×10⁻⁶ cm/s

Question: Which Papp at 2.5 h, 200 µM [5] does the source give for `OC[C@@H](O)[C@@H](O)[C@H](O)[C@H](O)CO` [MANNITOL] here?
Answer: 0.488 ×10⁻⁶ cm/s

Question: With `CC(C)NCC(O)COc1cccc2ccccc12` (stereo not drawn) [PROPRANOLOL] as the molecule, how does the Papp at 2.5 h, 200 µM [5] read?
Answer: 30.5 ×10⁻⁶ cm/s

Question: Which results are given for H-YPWFFGLM-NH2?
Answer: IC50 [1]: 0.012 µM; inhibition [1]: Dose-dependent effect; Ki [2]: 0.00073 µM; Ratio Ki [3]: 2130; half-life at 200 µM [4]: 15.6 min; Papp at 2.5 h, 200 µM [5]: 2.04 ×10⁻⁶ cm/s; Ki [6]: 1.56 µM

Question: What does the source list for H-YPWFGLM-NH2?
Answer: Ki [2]: 0.0016 µM; Ratio Ki [3]: 1240; half-life at 200 µM [4]: 10.7 min; Papp at 2.5 h, 200 µM [5]: 1.41 ×10⁻⁶ cm/s; Ki [6]: 1.98 µM
